Test results published in ChEMBL document CHEMBL1201862, “PubChem BioAssay data set” (2004).
Values joined by “and” are separate entries in the source; they are usually repeats but may differ in a detail not shown here. Equal values may be shown once.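 Five concentrations, 48 hours, 96-well plates. Abbreviation: GI50, concentration required for 50% inhibition of growth.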 Active and inactive are the calls of the source. Cut-off read from the data, not from the text of the source: active = GI50 up to about 1.1 µM and inactive = higher.

What was measured:
Test in all cases: growth of human tumour cells (NCI), 48 h
HL-60 = test system: HL-60
NCI-H460 = test system: NCI-H460
OVCAR-8 = test system: OVCAR-8
CAKI-1 = test system: CAKI-1
ACHN = test system: ACHN
K562 = test system: K562
SW-620 = test system: SW-620
KM12 = test system: KM12
CCRF-CEM = test system: CCRF-CEM
IGROV-1 = test system: IGROV-1
SF-268 = test system: SF-268
HCT-15 = test system: HCT-15
RPMI-8226 = test system: RPMI-8226
RXF 393 = test system: RXF 393
NCI/ADR-RES = test system: NCI/ADR-RES
MDA-MB-231 = test system: MDA-MB-231
M14 = test system: M14
HOP-92 = test system: HOP-92
SR = test system: SR

Row | SMILES | GI50 (HL-60) | GI50 (NCI-H460) | GI50 (OVCAR-8) | GI50 (CAKI-1) | GI50 (ACHN) | GI50 (K562) | GI50 (SW-620) | GI50 (KM12) | GI50 (CCRF-CEM) | GI50 (IGROV-1) | GI50 (SF-268) | GI50 (HCT-15) [µM] | GI50 (RPMI-8226) | GI50 (RXF 393) | GI50 (NCI/ADR-RES) | GI50 (MDA-MB-231) | GI50 (M14) | GI50 (HOP-92) | GI50 (SR)
1 | COc1cc2c(cc1OC)-c1c(oc3cc(OC4OC(CO)C(O)C(O)C4O)c(OC)cc3c1=O)C(O)O2 (stereo unspecified) | > 100 µM (inactive) | > 100 µM (inactive) | > 100 µM (inactive) | > 100 µM (inactive) | > 100 µM (inactive) | > 100 µM (inactive) | > 100 µM (inactive) | > 100 µM (inactive) | > 100 µM (inactive) | > 100 µM (inactive) | > 100 µM (inactive) | > 100 | > 100 µM (inactive) | > 100 µM (inactive) | > 100 µM (inactive) | > 100 µM (inactive) | > 100 µM (inactive) | > 100 µM (inactive) | –
2 | CC(O)(/C=C/c1ccccc1)P(=O)(O)c1ccccc1 (stereo unspecified) | > 100 µM (inactive) | > 100 µM (inactive) | > 100 µM (inactive) | > 100 µM (inactive) | > 100 µM (inactive) | > 100 µM (inactive) | > 100 µM (inactive) | > 100 µM (inactive) | – | > 100 µM (inactive) | > 100 µM (inactive) | > 100 | – | > 100 µM (inactive) | > 100 µM (inactive) | – | > 100 µM (inactive) | > 100 µM (inactive) | > 100 µM (inactive)
3 | CC(=O)OCC(OC(C)=O)C(OC(C)=O)C(OC(C)=O)C(=O)CNn1c(-c2ccccc2Cl)nc2ccc(Br)cc2c1=O (stereo unspecified) | 23.8 µM (inactive) | > 100 µM (inactive) | 76.9 µM (inactive) | 38.3 µM (inactive) | > 100 µM (inactive) | 44 µM (inactive) | > 100 µM (inactive) | > 100 µM (inactive) | 42.5 µM (inactive) | – | > 100 µM (inactive) | 78.7 | 27 µM (inactive) | 67 µM (inactive) | – | – | > 100 µM (inactive) | – | 43.8 µM (inactive)
4 | C=CCOCn1cnc2c(N)ncnc21 | > 100 µM (inactive) | > 100 µM (inactive) | > 100 µM (inactive) | > 100 µM (inactive) | > 100 µM (inactive) | > 100 µM (inactive) | > 100 µM (inactive) | > 100 µM (inactive) | > 100 µM (inactive) | > 100 µM (inactive) | > 100 µM (inactive) | > 100 | > 100 µM (inactive) | – | > 100 µM (inactive) | > 100 µM (inactive) | > 100 µM (inactive) | – | > 100 µM (inactive)
5 | c1ccc(Cc2cc(-c3ccccc3)[nH]n2)cc1 | 16.9 µM (inactive) | 17 µM (inactive) | 13.5 µM (inactive) | 11.5 µM (inactive) | 15.8 µM (inactive) | 13 µM (inactive) | 14.6 µM (inactive) | 14 µM (inactive) | 10.9 µM (inactive) | 18.1 µM (inactive) | 22.3 µM (inactive) | 18.5 | – | 10.3 µM (inactive) | 21.8 µM (inactive) | 11.5 µM (inactive) | 28.5 µM (inactive) | – | 18.4 µM (inactive)
6 | O=C1C(C(c2ccc([N+](=O)[O-])cc2)N2CCOCC2)=C(O)C(c2ccccc2)N1c1ccccc1 (stereo unspecified) | > 10 µM (inactive) | > 10 µM (inactive) | > 10 µM (inactive) | > 10 µM (inactive) | > 10 µM (inactive) | > 10 µM (inactive) | > 10 µM (inactive) | > 10 µM (inactive) | > 10 µM (inactive) | > 10 µM (inactive) | > 10 µM (inactive) | > 10 | > 10 µM (inactive) | > 10 µM (inactive) | > 10 µM (inactive) | > 10 µM (inactive) | > 10 µM (inactive) | – | > 10 µM (inactive)
7 | Cc1ccc(/C(O)=C/c2nc3ccccc3oc2=O)cc1 | – | > 100 µM (inactive) | 38.4 µM (inactive) | > 100 µM (inactive) | 58.1 µM (inactive) | 27.4 µM (inactive) | – | > 100 µM (inactive) | 12.8 µM (inactive) | > 100 µM (inactive) | > 100 µM (inactive) | 92.7 | – | > 100 µM (inactive) | 25.5 µM (inactive) | > 100 µM (inactive) | > 100 µM (inactive) | – | 26.9 µM (inactive)
8 | CN(C)Cc1cc(C(=O)/C=C/c2ccc(Cl)c(Cl)c2)cc(CN(C)C)c1O | 0.826 µM (active) | 2.12 µM (inactive) | 1.68 µM (inactive) | 1.13 µM (inactive) | 1.67 µM (inactive) | 1.31 µM (inactive) | 1.45 µM (inactive) | 1.82 µM (inactive) | 1.89 µM (inactive) | 3.37 µM (inactive) | 3.05 µM (inactive) | 2.84 | 1.99 µM (inactive) | 2.48 µM (inactive) | 2.24 µM (inactive) | 2.68 µM (inactive) | 2.02 µM (inactive) | 0.598 µM (active) | –
9 | O=c1[nH]c(N/N=C\C(O)C(O)C(O)CO)nc2ccccc12 (stereo unspecified) | > 100 µM (inactive) | > 100 µM (inactive) | > 100 µM (inactive) | > 100 µM (inactive) | > 100 µM (inactive) | > 100 µM (inactive) | > 100 µM (inactive) | > 100 µM (inactive) | > 100 µM (inactive) | > 100 µM (inactive) | > 100 µM (inactive) | > 100 | > 100 µM (inactive) | – | > 100 µM (inactive) | – | > 100 µM (inactive) | > 100 µM (inactive) | > 100 µM (inactive) and 56.2 µM (inactive)
